This is an account of results in patent US7572811B2, “Immunosuppressant compounds and compositions” (IRM LLC, priority 2004, dated 2009).

Read-outs that look alike come from different tables or passages of the source.

The target in assay [1] is T1, human EDG-1 (S1P-1) (Homo sapiens, UniProt P21453).
T1 construct: c-myc (N); expressed in transfected cells; host or cells: CHO cell clones (membrane preparation)
Put plainly: EDG-1 (S1P1) GTP [γ-35S] binding SPA assay. The settings on record: for EC50: GTP [γ-35S] binding, CHO cell membranes. Format: biochemical. Here is the method: (§1) A. In Vitro: A Scintillation Proximity Assay (SPA) for Measuring GTP [γ-^35S] Binding to Membranes Prepared from CHO Cells Expressing Human EDG/S1P Receptors
(§2) EDG-1 (S1P1) GTP [γ-^35S] binding assay: Membrane protein suspensions are prepared from CHO cell clones stably expressing a human EDG-1 N-terminal c-myc tag. Solutions of test compounds ranging from 10 mM to 0.01 nM are prepared in DMSO/50 mM HCl and then diluted into assay buffer (20 mM HEPES, pH7.4, 100 mM NaCl, 10 mM MgCl2, 0.1% fat free BSA). Assay buffer containing 10 mM GDP is mixed with wheat germ agglutinin-coated SPA-beads (1 mg/well) followed by the addition of human EDG-1 membrane protein suspension (10 μg/well) and test compound. The bead/membrane/compound assay components are then mixed for 10-15 minutes on a shaker at room temperature. GTP [γ-^35S] (200 pM) and bead/membrane/compound assay mixture are added to individual wells of a 96 well Optiplate™ (final volume 225 μl/well), sealed and incubated at room temperature for 110 to 120 minutes under constant shaking. After centrifugation (2000 rpm, 10 minutes) luminescence is measured with a TopCount™ instrument.
EC50 values are obtained by fitting the GTP [γ-^35S] binding curves (raw data) with the dose response curve-fitting tool of ORIGIN V. 6.1. Basal binding (no compound) and the highest stimulation of GTP [γ-^35S] binding achieved by an agonist are used as the fitting range. Seven different concentrations are used to generate a concentration response curve (using two or three data points per concentration).
Concentrations of EDG receptor expressing membranes range between 13-19 μg per well.

For assay [2], the system named is peripheral blood lymphocytes. Put plainly: Measurement of circulating lymphocytes (blood lymphocyte depletion). Format: in vivo, Mice (C57bl/6 male). The settings on record: Mus musculus, mice, oral gavage, read-out: ED50 (effective dose for 50% blood lymphocyte depletion). Here is the method:
C. In Vivo: Screening Assays for Measurement of Blood Lymphocyte Depletion and Assessment of Heart Effect
Measurement of circulating lymphocytes: Compounds are dissolved in DMSO and diluted to obtain a final concentration of 4% DMSO (v/v, final concentration) and then further diluted in a constant volume of Tween80 25%/H2O, v/v. Tween80 25%/H2O (200 μl), 4% DMSO, and FTY720 (10 μg) are included as negative and positive controls, respectively. Mice (C57bl/6 male, 6-10 week-old) are administered 250-300 μL of compound solution orally by gavages under short isoflurane anesthesia.
[…] Whole blood samples are subjected to hematology analysis. Peripheral lymphocyte counts are determined using an automated analyzer. Subpopulations of peripheral blood lymphocytes are stained by fluorochrome-conjugated specific antibodies and analyzed using a fluorescent activating cell sorter (Facscalibur). Two mice are used to assess the lymphocyte depletion activity of each compound screened. The result is an ED50, which is defined as the effective dose required displaying 50% of blood lymphocyte depletion.

The target of assay [3] is T2, S1P-2 (EDG-5) (Homo sapiens, UniProt O95136).
T2 construct: expressed in transfected cells; host or cells: CHO cells (membrane preparation)
T2 sequence (O95136 whole entry): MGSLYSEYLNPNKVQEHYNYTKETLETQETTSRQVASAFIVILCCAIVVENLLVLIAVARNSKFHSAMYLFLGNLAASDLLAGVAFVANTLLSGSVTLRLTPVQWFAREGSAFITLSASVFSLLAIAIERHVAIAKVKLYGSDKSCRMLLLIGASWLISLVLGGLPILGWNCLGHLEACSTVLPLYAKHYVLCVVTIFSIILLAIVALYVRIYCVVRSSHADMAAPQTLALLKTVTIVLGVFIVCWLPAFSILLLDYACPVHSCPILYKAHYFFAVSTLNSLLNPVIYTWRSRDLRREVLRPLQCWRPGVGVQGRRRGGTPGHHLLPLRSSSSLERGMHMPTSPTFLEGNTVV
Put plainly: EDG-5 GTP [γ-35S] binding SPA assay. Format: biochemical. Here is the method:
as §1, §2
(§3) EC50 values are obtained by fitting the GTP [γ-^35S] binding curves (raw data) with the dose response curve-fitting tool of ORIGIN V. 6.1. […]

In assay [4] the target is S1P-3 (EDG-3) (Homo sapiens, UniProt Q99500). Put plainly: EDG-3 GTP [γ-35S] binding SPA assay. Format: biochemical. Here is the method:
as §1, §2, §3

Assay [5] deals with T3, S1P-5 (EDG-8) (Homo sapiens, UniProt Q9H228).
T3 construct: expressed in transfected cells; host or cells: RE7777 cells as printed (membrane preparation)
T3 sequence (Q9H228 whole entry): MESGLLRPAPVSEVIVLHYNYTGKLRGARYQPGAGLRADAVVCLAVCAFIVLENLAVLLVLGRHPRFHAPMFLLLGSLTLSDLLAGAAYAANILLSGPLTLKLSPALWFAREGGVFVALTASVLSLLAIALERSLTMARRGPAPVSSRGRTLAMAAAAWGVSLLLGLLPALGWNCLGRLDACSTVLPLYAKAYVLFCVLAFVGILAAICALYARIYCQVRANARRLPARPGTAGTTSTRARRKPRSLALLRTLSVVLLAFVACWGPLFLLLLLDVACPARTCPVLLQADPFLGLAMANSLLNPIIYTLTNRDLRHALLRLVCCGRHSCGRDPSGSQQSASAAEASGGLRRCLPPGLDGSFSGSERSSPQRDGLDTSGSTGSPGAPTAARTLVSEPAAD
Put plainly: EDG-8 GTP [γ-35S] binding SPA assay. Format: biochemical. Here is the method:
as §1, §2, §3

Assay [6] has as its target T4, S1P-4 (EDG-6) (Homo sapiens, UniProt O95977).
T4 sequence (O95977 1-384): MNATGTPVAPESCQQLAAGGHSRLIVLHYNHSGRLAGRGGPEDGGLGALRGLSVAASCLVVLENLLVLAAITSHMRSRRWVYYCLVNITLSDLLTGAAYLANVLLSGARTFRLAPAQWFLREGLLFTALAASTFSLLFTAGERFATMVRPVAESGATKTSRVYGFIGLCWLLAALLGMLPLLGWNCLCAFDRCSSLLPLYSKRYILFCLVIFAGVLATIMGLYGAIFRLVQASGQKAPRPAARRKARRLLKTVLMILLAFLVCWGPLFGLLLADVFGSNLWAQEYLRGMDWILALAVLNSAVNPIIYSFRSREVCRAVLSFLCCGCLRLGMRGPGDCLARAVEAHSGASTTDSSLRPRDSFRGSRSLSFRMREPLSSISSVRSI
Put plainly: EDG-6 GTP [γ-35S] binding SPA assay. Format: biochemical. Here is the method: as §1, §2, §3

T1 sequence (P21453 whole entry): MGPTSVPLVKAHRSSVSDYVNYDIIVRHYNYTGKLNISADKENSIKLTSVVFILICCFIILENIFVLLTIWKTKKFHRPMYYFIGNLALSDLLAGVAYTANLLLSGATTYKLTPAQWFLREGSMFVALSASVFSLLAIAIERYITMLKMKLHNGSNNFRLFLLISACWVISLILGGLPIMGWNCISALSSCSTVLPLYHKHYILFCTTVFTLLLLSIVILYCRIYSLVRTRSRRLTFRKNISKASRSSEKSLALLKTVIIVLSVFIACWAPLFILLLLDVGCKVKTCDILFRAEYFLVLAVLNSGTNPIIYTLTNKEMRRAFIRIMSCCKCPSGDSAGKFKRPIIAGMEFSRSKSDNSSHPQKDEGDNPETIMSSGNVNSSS
S1P-3 (EDG-3), sequence (Q99500 whole entry): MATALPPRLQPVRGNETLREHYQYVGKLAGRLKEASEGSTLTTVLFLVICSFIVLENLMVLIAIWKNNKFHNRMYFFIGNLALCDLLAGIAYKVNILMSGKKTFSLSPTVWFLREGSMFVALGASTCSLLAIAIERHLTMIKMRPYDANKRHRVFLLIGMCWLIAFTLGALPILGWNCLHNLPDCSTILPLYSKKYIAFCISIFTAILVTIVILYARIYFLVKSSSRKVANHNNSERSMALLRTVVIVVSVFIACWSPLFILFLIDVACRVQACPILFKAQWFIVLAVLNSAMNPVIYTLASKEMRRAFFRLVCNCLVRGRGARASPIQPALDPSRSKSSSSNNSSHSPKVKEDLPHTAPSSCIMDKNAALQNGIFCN

The EC50 is the concentration needed to bring the measured effect to its halfway point. The low end stands for an effect from little substance, the high end for a need for much substance. As a reminder, the ED50 is the dose that gives a 50% effect, or the effect in half of the subjects. The compound `Cc1cc(OCc2ccc(C3CCN(CCC(=O)O)CC3)cc2)ccc1C1CCCCC1` [Example 1, 3-{4-[4-(4-Cyclohexyl-3-methyl-phenoxymethyl)-phenyl]-piperidin-1-yl}-propionic acid] registered an EC50 in assay [1] of 0.22 nM. In addition, the “selectivity for S1P-1 compared to one or more of the other receptors” value in assay [1] (versus S1P-3, S1P-5, S1P-6 and S1P-8 as printed) is “at least 1000 fold”. The ED50 in assay [2] (time point not stated) worked out at 0.1 mg/kg.

As to `Cc1cc(OCc2ccc(C3CCN(CCC(=O)O)CC3)cc2)ccc1-c1ccccc1` [Example 8, 3-{4-[4-(2-Methyl-biphenyl-4-yloxymethyl)-phenyl]-piperidin-1-yl}-propionic acid], the half-maximal effective concentration (EC50) in assay [3] is more than 10000 nM; in assay [1], 2 nM; in assay [4] it was 2000 nM; in assay [5], 370 nM; in assay [6], more than 10000 nM. Besides, the median effective dose (ED50) worked out at 0.2 mg/kg in assay [2] (at 6 hours) and 0.8 mg/kg in assay [2] (at 48 hours).
